Assay results from ChEMBL document CHEMBL4715708, “Discovery of 8-Amino-imidazo[1,5-a]pyrazines as Reversible BTK Inhibitors for the Treatment of Rheumatoid Arthritis” (ACS Med Chem Lett, 2016).
pIC50: −log10 of the molar value.

Experiments:
[1] = Clearance in rat at 4 mg/kg, iv; type: ADME, organism-based; conditions: in vivo
[2] = Volume of distribution at steady state in rat at 4 mg/kg, iv; type: ADME, organism-based; conditions: in vivo, read-out: Vdss
[3] = Dose normalized AUC in rat at 4 mg/kg, iv; type: ADME, organism-based; conditions: in vivo
[4] = Half life in rat at 4 mg/kg, iv; type: ADME, organism-based; conditions: in vivo
[5] = Cmax in rat at 10 mg/kg, po; type: ADME, organism-based; set-up: route oral, dose 10 mg/kg; conditions: in vivo
[6] = Tmax in rat at 10 mg/kg, po; type: ADME, organism-based; conditions: in vivo
[7] = Oral bioavailability in rat at 10 mg/kg; type: ADME, organism-based; conditions: in vivo
[8] = target: Tyrosine-protein kinase Blk (Homo sapiens, UniProt P51451); test: Inhibition of human BLK
Sequence of Tyrosine-protein kinase Blk (P51451 whole entry): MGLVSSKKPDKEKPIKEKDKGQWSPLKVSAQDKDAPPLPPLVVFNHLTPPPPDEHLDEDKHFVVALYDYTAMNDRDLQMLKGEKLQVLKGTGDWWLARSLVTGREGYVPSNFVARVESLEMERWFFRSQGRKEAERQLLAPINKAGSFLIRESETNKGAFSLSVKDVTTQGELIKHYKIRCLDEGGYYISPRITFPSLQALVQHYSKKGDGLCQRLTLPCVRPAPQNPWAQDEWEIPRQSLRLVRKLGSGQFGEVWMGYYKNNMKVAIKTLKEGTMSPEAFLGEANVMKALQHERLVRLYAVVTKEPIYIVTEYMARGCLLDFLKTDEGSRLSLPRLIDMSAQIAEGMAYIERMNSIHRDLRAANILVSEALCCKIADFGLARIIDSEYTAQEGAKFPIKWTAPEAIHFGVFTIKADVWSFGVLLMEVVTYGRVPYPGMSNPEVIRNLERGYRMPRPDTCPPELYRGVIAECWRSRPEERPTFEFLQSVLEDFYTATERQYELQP

[9] = target: T1, Cytoplasmic tyrosine-protein kinase BMX (Homo sapiens, UniProt P51813); test: Inhibition of human BMX
T1 sequence (P51813 whole entry): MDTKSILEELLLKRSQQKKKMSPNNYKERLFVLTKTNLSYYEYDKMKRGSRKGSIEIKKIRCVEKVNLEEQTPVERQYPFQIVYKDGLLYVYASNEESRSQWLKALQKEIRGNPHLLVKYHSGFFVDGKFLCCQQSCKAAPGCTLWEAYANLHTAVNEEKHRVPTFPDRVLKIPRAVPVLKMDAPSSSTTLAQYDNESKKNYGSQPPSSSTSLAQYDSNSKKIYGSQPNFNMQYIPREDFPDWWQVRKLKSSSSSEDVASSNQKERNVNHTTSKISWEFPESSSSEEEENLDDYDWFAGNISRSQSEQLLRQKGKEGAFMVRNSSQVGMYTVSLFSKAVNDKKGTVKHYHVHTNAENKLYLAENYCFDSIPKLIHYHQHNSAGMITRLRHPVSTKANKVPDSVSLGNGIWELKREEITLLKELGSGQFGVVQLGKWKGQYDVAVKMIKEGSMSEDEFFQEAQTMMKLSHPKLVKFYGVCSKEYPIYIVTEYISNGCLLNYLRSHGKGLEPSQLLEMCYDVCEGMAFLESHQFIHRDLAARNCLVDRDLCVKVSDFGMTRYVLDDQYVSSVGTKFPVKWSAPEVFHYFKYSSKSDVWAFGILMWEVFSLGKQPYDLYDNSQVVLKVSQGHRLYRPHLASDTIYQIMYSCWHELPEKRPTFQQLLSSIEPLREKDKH

[10] = target: Tyrosine-protein kinase CSK (Homo sapiens, UniProt P41240); test: Inhibition of human CSK
Sequence of Tyrosine-protein kinase CSK (P41240 whole entry): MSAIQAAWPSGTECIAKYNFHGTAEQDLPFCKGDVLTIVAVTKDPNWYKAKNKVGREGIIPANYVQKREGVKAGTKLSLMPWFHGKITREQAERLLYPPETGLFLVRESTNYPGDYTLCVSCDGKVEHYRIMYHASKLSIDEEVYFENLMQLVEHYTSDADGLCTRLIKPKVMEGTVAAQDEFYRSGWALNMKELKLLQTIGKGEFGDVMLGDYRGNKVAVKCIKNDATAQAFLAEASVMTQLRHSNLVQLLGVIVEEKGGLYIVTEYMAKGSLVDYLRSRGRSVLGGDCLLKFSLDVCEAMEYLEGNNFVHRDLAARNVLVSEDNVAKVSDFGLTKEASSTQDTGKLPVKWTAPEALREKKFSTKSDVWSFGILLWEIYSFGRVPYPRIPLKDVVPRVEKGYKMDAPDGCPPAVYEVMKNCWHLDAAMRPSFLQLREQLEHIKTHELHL

[11] = target: Receptor tyrosine-protein kinase erbB-4 (Homo sapiens, UniProt Q15303); test: Inhibition of human ERBB4
Sequence of Receptor tyrosine-protein kinase erbB-4 (Q15303 whole entry): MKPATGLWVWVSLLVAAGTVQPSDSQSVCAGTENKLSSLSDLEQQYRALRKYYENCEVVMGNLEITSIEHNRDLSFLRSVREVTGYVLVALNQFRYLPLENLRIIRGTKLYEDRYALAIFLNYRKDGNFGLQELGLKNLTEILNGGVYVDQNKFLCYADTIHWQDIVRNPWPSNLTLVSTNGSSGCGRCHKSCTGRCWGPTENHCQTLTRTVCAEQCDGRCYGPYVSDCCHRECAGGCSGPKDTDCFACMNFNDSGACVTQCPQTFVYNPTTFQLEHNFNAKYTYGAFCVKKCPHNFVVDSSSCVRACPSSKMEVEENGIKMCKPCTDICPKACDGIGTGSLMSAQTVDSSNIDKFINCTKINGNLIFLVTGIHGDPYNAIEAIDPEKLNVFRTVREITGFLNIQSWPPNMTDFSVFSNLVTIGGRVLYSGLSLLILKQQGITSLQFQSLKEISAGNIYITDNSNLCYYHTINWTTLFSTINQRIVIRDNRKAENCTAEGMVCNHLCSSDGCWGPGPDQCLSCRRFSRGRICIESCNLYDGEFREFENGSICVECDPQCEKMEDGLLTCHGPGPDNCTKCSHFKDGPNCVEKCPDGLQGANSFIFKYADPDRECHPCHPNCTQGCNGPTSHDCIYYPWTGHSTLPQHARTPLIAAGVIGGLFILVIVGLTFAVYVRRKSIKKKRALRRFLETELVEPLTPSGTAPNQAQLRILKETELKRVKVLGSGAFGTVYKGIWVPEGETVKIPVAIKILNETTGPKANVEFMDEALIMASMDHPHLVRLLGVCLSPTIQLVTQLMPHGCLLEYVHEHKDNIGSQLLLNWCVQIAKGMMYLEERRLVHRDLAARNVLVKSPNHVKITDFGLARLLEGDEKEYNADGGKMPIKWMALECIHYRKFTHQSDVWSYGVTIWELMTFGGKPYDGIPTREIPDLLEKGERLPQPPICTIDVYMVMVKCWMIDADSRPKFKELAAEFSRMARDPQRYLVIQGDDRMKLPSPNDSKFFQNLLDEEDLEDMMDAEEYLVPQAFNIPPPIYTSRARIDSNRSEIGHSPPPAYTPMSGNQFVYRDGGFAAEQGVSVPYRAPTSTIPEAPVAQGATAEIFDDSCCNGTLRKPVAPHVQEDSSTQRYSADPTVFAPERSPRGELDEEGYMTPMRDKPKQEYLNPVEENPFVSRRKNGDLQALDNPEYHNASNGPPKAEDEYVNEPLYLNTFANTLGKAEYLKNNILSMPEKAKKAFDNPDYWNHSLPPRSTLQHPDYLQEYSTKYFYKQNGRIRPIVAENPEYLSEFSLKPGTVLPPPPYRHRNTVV

[12] = target: Tyrosine-protein kinase Fgr (Homo sapiens, UniProt P09769); test: Inhibition of human FGR
[13] = target: Tyrosine-protein kinase FRK (Homo sapiens, UniProt P42685); test: Inhibition of human FRK
Sequence of Tyrosine-protein kinase FRK (P42685 whole entry): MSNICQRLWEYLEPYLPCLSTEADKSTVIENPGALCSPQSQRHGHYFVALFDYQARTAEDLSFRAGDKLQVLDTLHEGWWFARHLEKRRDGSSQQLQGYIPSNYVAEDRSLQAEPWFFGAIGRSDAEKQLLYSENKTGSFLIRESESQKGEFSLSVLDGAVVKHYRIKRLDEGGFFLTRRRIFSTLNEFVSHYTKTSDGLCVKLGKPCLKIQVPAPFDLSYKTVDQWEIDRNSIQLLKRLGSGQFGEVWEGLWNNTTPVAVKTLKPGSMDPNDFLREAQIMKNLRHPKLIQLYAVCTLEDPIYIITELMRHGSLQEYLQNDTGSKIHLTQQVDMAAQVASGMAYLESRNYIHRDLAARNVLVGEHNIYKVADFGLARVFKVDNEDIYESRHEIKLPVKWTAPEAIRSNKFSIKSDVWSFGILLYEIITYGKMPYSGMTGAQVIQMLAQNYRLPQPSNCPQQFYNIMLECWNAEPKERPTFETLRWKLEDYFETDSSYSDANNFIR

[14] = target: Tyrosine-protein kinase Fyn (Homo sapiens, UniProt P06241); test: Inhibition of human FYN
[15] = target: T2, Tyrosine-protein kinase ITK/TSK (Homo sapiens, UniProt Q08881); test: Inhibition of human ITK
T2 sequence (Q08881 whole entry): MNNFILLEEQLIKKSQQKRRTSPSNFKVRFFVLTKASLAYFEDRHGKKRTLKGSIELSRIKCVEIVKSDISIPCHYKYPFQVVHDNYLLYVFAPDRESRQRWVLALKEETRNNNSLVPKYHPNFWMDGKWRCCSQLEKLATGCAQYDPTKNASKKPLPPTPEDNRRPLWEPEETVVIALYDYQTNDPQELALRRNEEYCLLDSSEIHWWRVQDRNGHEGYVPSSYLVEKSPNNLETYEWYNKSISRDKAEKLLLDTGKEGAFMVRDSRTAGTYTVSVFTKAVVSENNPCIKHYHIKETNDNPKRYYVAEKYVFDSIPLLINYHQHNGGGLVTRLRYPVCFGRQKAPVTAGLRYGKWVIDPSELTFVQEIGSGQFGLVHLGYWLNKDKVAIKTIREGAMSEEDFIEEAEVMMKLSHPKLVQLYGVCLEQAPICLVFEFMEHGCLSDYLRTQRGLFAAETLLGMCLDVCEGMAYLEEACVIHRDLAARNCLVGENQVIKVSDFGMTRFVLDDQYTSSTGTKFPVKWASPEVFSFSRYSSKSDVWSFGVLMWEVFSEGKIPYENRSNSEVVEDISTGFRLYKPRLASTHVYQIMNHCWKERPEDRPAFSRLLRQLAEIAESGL

[16] = target: Tyrosine-protein kinase Lck (Homo sapiens, UniProt P06239); test: Inhibition of human LCK
[17] = target: Tyrosine-protein kinase Lyn (Homo sapiens, UniProt P07948); test: Inhibition of human LYNB
[18] = target: Protein-tyrosine kinase 6 (Homo sapiens, UniProt Q13882); test: Inhibition of human PTK6
Sequence of Protein-tyrosine kinase 6 (Q13882 whole entry): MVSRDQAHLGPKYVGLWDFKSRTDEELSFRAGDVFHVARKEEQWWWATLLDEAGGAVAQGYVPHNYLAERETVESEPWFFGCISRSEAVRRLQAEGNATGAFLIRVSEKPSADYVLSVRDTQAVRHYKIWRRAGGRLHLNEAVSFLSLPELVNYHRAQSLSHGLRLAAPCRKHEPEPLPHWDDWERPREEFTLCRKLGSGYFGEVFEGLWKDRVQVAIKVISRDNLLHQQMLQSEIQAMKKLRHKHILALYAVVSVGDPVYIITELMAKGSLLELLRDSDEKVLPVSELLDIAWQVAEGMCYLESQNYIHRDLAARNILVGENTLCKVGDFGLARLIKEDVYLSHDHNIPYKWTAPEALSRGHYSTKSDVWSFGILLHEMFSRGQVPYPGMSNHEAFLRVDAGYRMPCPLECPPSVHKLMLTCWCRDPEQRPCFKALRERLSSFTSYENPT

[19] = target: Proto-oncogene tyrosine-protein kinase Src (Homo sapiens, UniProt P12931); test: Inhibition of human SRC
Sequence of Proto-oncogene tyrosine-protein kinase Src (P12931 2-536 limits assumed): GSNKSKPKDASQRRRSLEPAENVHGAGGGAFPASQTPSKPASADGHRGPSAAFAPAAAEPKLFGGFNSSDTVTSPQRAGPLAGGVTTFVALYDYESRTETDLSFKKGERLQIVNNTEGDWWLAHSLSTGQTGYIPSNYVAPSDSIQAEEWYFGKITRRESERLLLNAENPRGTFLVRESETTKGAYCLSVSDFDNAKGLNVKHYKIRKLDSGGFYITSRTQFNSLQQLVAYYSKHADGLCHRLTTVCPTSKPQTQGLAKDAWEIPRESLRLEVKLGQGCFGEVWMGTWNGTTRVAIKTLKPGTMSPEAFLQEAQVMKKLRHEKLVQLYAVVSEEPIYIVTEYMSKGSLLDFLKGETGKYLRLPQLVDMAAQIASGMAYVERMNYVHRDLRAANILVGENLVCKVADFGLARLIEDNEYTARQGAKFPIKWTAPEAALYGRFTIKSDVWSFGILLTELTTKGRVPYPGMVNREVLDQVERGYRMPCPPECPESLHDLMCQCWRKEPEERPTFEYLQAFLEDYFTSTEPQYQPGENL

[20] = target: Tyrosine-protein kinase Srms (Homo sapiens, UniProt Q9H3Y6); test: Inhibition of human SRMS
Sequence of Tyrosine-protein kinase Srms (Q9H3Y6 whole entry): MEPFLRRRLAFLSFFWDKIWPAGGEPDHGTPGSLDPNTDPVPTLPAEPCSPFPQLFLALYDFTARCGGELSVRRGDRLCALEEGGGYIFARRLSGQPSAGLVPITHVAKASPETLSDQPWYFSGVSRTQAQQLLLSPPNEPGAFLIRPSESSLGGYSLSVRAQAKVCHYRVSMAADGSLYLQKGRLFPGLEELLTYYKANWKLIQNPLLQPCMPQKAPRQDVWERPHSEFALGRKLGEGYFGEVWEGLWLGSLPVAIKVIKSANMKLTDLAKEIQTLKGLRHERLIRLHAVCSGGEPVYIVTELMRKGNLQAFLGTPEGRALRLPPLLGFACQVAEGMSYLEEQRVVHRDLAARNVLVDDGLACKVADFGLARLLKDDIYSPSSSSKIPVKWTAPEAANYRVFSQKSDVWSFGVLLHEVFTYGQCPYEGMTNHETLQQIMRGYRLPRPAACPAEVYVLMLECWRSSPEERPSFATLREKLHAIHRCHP

[21] = target: T3, Tyrosine-protein kinase Tec (Homo sapiens, UniProt P42680); test: Inhibition of human TEC
T3 sequence (P42680 whole entry): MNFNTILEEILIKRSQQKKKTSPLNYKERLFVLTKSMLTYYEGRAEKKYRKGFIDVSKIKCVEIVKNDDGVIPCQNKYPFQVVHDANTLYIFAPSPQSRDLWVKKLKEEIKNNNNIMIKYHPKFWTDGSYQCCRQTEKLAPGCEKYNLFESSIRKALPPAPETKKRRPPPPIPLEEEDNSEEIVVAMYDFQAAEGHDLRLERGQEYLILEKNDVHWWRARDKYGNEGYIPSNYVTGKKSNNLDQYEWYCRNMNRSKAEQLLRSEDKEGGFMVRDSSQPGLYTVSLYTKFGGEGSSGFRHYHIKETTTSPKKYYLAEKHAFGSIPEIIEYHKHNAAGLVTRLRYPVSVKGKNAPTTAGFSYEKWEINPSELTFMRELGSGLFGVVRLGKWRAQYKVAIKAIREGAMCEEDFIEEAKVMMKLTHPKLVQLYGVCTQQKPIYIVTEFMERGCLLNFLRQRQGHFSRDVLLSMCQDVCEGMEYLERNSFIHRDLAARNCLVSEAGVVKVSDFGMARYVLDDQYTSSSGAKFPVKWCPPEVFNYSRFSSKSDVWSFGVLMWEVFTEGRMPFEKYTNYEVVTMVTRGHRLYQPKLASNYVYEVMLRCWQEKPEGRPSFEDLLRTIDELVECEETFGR

[22] = target: T4, Tyrosine-protein kinase TXK (Homo sapiens, UniProt P42681); test: Inhibition of human TXK
T4 sequence (P42681 whole entry): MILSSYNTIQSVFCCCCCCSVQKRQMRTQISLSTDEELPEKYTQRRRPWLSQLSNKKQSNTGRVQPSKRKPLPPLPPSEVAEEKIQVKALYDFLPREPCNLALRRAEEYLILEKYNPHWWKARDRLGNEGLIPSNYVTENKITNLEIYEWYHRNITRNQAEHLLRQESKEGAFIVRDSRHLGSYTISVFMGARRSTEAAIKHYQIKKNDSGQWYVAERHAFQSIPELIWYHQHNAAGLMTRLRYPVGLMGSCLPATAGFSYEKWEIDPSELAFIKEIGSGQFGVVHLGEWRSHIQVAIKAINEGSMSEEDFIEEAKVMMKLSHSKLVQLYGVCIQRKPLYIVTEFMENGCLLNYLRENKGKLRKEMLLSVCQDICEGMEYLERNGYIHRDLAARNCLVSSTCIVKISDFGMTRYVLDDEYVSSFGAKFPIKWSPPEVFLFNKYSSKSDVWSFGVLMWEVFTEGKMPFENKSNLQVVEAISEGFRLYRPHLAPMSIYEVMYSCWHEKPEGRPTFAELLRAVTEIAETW

[23] = target: Tyrosine-protein kinase Yes (Homo sapiens, UniProt P07947); test: Inhibition of human YES1
Sequence of Tyrosine-protein kinase Yes (P07947 whole entry): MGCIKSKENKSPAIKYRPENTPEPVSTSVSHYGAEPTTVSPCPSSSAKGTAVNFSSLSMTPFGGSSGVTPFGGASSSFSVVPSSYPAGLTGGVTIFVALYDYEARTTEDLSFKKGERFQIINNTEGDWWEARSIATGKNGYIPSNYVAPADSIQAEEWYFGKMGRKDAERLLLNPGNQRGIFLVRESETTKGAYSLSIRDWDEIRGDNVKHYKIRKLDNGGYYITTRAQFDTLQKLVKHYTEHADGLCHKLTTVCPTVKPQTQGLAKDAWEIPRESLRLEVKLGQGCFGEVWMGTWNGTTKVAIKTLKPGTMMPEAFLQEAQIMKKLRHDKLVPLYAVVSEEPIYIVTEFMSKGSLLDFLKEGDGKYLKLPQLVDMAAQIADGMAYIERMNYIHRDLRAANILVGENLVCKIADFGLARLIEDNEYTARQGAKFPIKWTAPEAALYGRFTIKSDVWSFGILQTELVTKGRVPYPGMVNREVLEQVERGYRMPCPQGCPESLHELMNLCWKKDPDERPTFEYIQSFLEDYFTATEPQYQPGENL

[24] = Clearance in rat at 2 mg/kg, iv; type: ADME, organism-based; conditions: in vivo
[25] = Volume of distribution at steady state in rat at 2 mg/kg, iv; type: ADME, organism-based; conditions: in vivo, read-out: Vdss
[26] = Dose normalized AUC in rat at 2 mg/kg, iv; type: ADME, organism-based; conditions: in vivo
[27] = Half life in rat at 2 mg/kg, iv; type: ADME, organism-based; conditions: in vivo
[28] = Cmax in rat at 5 mg/kg, po; type: ADME, organism-based; set-up: route oral, dose 5 mg/kg; conditions: in vivo
[29] = Tmax in rat at 5 mg/kg, po; type: ADME, organism-based; conditions: in vivo
[30] = Oral bioavailability in rat at 5 mg/kg; type: ADME, organism-based; conditions: in vivo
[31] = Clearance in dog at 1 mg/kg, iv; type: ADME, organism-based, Canis lupus familiaris; conditions: in vivo
[32] = Volume of distribution at steady state in dog at 1 mg/kg, iv; type: ADME, organism-based, Canis lupus familiaris; conditions: in vivo, read-out: Vdss
[33] = Dose normalized AUC in dog at 1 mg/kg, iv; type: ADME, organism-based, Canis lupus familiaris; conditions: in vivo
[34] = Half life in dog at 1 mg/kg, iv; type: ADME, organism-based, Canis lupus familiaris; conditions: in vivo
[35] = Cmax in dog at 2 mg/kg, po; type: ADME, organism-based, Canis lupus familiaris; set-up: route oral, dose 2 mg/kg; conditions: in vivo
[36] = Tmax in dog at 2 mg/kg, po; type: ADME, organism-based, Canis lupus familiaris; conditions: in vivo
[37] = Oral bioavailability in dog at 2 mg/kg; type: ADME, organism-based, Canis lupus familiaris; conditions: in vivo

## CC1(C(=O)N2CCC[C@@H](c3nc(-c4ccc(C(=O)Nc5cc(C(F)(F)F)ccn5)cc4)c4c(N)nccn34)C2)COC1
[1]
  clearance: 6.3 mL/min/kg
[2]
  Vd: 0.59 L/kg
[3]
  AUC/dose: 5.1 µM·h
[4]
  half-life: 1.2 h
[5]
  Cmax: 4800 nM
[6]
  Tmax: 2.2 h
[7]
  bioavailability: 84%

## CC1(C(=O)N2CCC[C@@H](c3nc(-c4ccc(C(=O)Nc5cc(C(F)(F)F)ccn5)cc4F)c4c(N)nccn34)C2)COC1
[8]
  pIC50: 7.38
[9]
  pIC50: 7.70
[10]
  pIC50: 6.60
[11]
  pIC50: 7.09
[12]
  pIC50: 7.26
[13]
  pIC50: 6.73
[14]
  pIC50: 6.49
[15]
  pIC50: 6.04
[16]
  pIC50: 7.66
[17]
  pIC50: 6.74
[18]
  pIC50: 7.20
[19]
  pIC50: 6.94
[20]
  pIC50: 7.62
[21]
  pIC50: 7.16
[22]
  pIC50: 7.49
[23]
  pIC50: 7.37
[24]
  clearance: 24 mL/min/kg
[25]
  Vd: 1.7 L/kg
[26]
  AUC/dose: 1.1 µM·h
[27]
  half-life: 1.4 h
[28]
  Cmax: 1000 nM
[29]
  Tmax: 0.5 h
[30]
  bioavailability: 77%
[31]
  clearance: 11 mL/min/kg
[32]
  Vd: 2 L/kg
[33]
  AUC/dose: 3 µM·h
[34]
  half-life: 4.1 h
[35]
  Cmax: 780 nM
[36]
  Tmax: 1 h
[37]
  bioavailability: 60%

## C[C@H]1CC[C@@H](c2nc(-c3ccc(C(=O)Nc4cc(C(F)(F)F)ccn4)cc3F)c3c(N)nccn23)CN1C(=O)C1CC1
[24]
  clearance: 18 mL/min/kg
[25]
  Vd: 2.6 L/kg
[26]
  AUC/dose: 1.6 µM·h
[27]
  half-life: 1.8 h
[28]
  Cmax: 400 nM
[29]
  Tmax: 1 h
[30]
  bioavailability: 22%
[31]
  clearance: 1.5 mL/min/kg
[32]
  Vd: 0.65 L/kg
[33]
  AUC/dose: 20 µM·h
[34]
  half-life: 6.5 h
[35]
  Cmax: 3900 nM
[36]
  Tmax: 2 h
[37]
  bioavailability: 82%
